Assay results published in patent publication US20240002387A1, “METHOD FOR PREPARING BTK DEGRADING AGENT” (HAISCO PHARMACEUTICALS PTE. LTD., priority 2020, published 2024).

Tests used:
BTK [1] = target: BTK (Homo sapiens (Human), UniProt Q06187); test: Detection of BTK degradation in Mino cells; type: cell-based
Experimental: Mino human mantle cell lymphoma cell line was purchased from ATCC and cultured under the following conditions: RPMI-1640+15% FBS+1% double antibody in a 37° C., 5% CO2 incubator. Cells were plated in a 6-well plate, with 5×10^5 cells/well. After plating, the compounds at different concentrations were added and cultured in an incubator at 37° C. under 5% CO2 for 48 hours. After culturing, the cells were collected, and RIPA lysis buffer (Beyotime, Cat. P0013B) was added. The cells were lysed on ice for 15 minutes and centrifuged at 12000 rpm at 4° C. for 10 minutes. The protein sample of the supernatant was collected, and the protein was quantified by using the BCA kit (Beyotime, Cat. P0009), and then the protein was diluted to 0.25 mg/mL. The expressions of BTK (CST, Cat. 8547S) and the internal reference (3-actin (CST, Cat. 3700S) were detected using a fully automated western blot quantitative analyzer (Proteinsimple) with a kit (Protein simple, Cat. SM-W004). The expression level of BTK relative to the internal reference was calculated using Compass software, and the DC50 value was calculated using Origen9.2 software according to formula (1). Specifically, the BTK administration denoted the expression level of BTK in administration groups at different doses, and the BTK vehicle denoted the expression level of BTK in the vehicle control group. […]

BTK [2] = target: BTK (Mus musculus (Mouse), UniProt P35991); test: Detection of BTK protein degradation in spleen of mice; type: in vivo
BTK (Mus musculus (Mouse), UniProt P35991), sequence (P35991 whole entry): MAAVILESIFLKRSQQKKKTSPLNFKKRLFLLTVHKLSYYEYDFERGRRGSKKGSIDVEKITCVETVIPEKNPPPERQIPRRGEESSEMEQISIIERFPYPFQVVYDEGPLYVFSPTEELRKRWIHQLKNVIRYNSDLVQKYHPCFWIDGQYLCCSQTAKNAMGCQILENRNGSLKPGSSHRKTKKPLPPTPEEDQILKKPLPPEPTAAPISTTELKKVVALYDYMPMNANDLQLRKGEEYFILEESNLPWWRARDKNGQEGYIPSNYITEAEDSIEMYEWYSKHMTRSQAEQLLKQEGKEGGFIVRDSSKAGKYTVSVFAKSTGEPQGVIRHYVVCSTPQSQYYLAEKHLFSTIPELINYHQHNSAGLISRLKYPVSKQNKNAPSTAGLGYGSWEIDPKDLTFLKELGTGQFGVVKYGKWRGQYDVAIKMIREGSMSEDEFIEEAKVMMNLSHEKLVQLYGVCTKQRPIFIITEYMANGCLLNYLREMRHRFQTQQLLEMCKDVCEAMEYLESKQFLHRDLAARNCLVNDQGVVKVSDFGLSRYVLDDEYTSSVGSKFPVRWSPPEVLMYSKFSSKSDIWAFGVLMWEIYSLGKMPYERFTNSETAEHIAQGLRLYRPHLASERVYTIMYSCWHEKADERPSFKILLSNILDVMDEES
Experimental: Female ICR mice, 6-8 weeks old, were purchased from BEIJING VITAL RIVER LABORATORY ANIMAL TECHNOLOGY CO., LTD., and the experiment was started after 3 days of acclimatization. After intragastric administration of different doses of the compound for 3 consecutive days, the spleen of mice was taken, the spleen cells were collected, and RIPA lysis buffer (Beyotime, Cat. P0013B) was added. The cells were lysed on ice for 15 minutes and centrifuged at 12000 rpm at 4° C. for 10 minutes. The protein sample of the supernatant was collected, the protein was quantified by using the BCA kit (Beyotime, Cat. P0009), and then the protein was diluted to 0.25 mg/mL. The expressions of BTK (CST, Cat. 8547S) and the internal reference (3-actin (CST, Cat. 3700S) were detected using a fully automated western blot quantitative analyzer (Proteinsimple). The expression level of BTK relative to the internal reference was calculated using Compass software, and the DD50 value was calculated using Origen9.2 software according to formula (2). Specifically, the BTKadministration denoted the expression level of BTK in administration groups at different doses, and the BTKvehicle denoted the expression level of BTK in the vehicle control group.
BTK %=BTKadministration/BTKvehicle×100 formula (2)

BTK wt = BTK wt (Homo sapiens (Human), UniProt Q06187); test: In vitro kinase detection, BTK wt; type: biochemical
BTK wt, sequence (Q06187 whole entry): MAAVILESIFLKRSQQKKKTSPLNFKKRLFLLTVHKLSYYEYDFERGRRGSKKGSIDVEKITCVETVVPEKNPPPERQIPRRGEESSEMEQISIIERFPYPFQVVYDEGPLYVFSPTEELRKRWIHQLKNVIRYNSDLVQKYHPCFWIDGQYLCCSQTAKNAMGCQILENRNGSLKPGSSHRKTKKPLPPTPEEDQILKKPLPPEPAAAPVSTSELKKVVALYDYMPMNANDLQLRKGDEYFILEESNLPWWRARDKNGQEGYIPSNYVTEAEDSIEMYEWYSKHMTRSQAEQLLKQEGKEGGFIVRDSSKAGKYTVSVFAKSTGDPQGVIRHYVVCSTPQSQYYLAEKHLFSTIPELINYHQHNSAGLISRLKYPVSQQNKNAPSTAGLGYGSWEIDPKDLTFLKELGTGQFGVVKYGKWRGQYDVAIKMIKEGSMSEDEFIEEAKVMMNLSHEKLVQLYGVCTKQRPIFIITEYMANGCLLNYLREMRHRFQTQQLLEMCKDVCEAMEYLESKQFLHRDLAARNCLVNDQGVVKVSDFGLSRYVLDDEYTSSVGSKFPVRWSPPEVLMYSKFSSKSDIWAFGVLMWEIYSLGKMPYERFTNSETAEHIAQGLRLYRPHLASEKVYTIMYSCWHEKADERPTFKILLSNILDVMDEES
Experimental: (§1) Kinases BTK wt (Carna, Cat. No. 08-180) and BTK C481S (Cama, Cat. No. 08-547) were prepared into a 2.5× kinase solution, and the substrates FAM-P2 (GL Biochem, Cat. No. 112394) and ATP (Sigma, Cat. No. A7699-1G) were prepared into a 2.5× substrate solution, respectively. 5 μL of compounds at different concentrations were added to a 384-well plate. 10 μl of 2.5× kinase solution was added, and the resulting mixture was incubated at room temperature for 10 min. 10 μL of 2.5× substrate solution was added, and the mixture was incubated at 28° C. for an appropriate period of time. The reaction was stopped by adding 30 μL of stop buffer, and the detection was carried out by using Caliper EZ reader2. The IC50 value was calculated by using XLFit excel add-in version 5.4.0.8 software. The calculation formula of the inhibition rate was shown in formula (3), wherein max denoted the readout of the DMSO control, min denoted the readout of the negative control, and conversion denoted the readout of the compound

BTK C481S = BTK C481S (Homo sapiens (Human), UniProt Q06187, C481S); test: In vitro kinase detection, BTK C481S; type: biochemical
BTK C481S, sequence (Q06187 whole entry C481S): as the sequence (Q06187 whole entry) above, with C481S counted along it
Experimental: as §1

BTK (Homo sapiens (Human), UniProt Q06187), sequence (Q06187 whole entry): as the sequence (Q06187 whole entry) above

Nc1ncnc2c1c(-c1ccc(Oc3ccccc3)cc1)nn2C1CCN(C2CN(C3CN(c4ccc5c(c4)C(=O)N(C4CCC(=O)NC4=O)C5=O)C3)C2)CC1 (stereo not shown) [Compound 1, 5-[3-[3-[4-[4-amino-3-(4-phenoxyphenyl]pyrazolo[3,4-d]pyrimidin-1-yl]-1-piperidyl]azetidin-1-yl]azetidin-1-yl]-2-(2,6-dioxo-3-piperidyl)isoindoline-1,3-dione]
degradation effect on BTK in Mino cells (conclusion) (BTK [1]): significant degradation effect
DC50 (BTK [1]; 48 hours, western blot): 10.9 nM
degradation effect on BTK proteins in spleen of mice (conclusion) (BTK [2]): significant degradation effect
IC50 (BTK wt): 6.3 nM
inhibitory effect on BTK wt kinase (conclusion) (BTK wt): significant inhibitory effect
IC50 (BTK C481S): 8 nM
inhibitory effect on BTK C481S kinase (conclusion) (BTK C481S): significant inhibitory effect
